Measured values from patent publication US20160168185A1 (BAYLOR COLLEGE OF MEDICINE, priority 2013, published 2016).
Where two headings read alike, the source gives them in different places.

Columns and labels:
panel of other HMTs = experiment: Activity against a panel of other HMTs
[1] = continuous infusion, subcutaneously implanted osmotic pump; cited from earlier work
[2] = system: MV4-11 MLL leukemia mouse model; conditions: cited from earlier work
[3] = system: histone methyltransferases CARM1, PRMT1 and SUV39H1
[4] = Human plasma stability assay; assay type: in vitro ADME
Description: For human plasma stability assay, to human plasma (500 μL) was added a test compound to a final concentration of 5 μM and incubated at 37° C. at approximately 60 rpm on an orbital shaker. Aliquots of 50 μL were taken from the reaction solution at 0, 15, 30, 45 and 60 minutes. The reaction was stopped by the addition of 6 volumes of cold acetonitrile. Samples were centrifuged at 20,000 g for 15 minutes to precipitate protein. An aliquot of 150 μL of the supernatant was used to determine the remaining amount of the test compound, using the same LC/MS/MS method described above. All experiments were performed in duplicate.

[5] = system: H3K79 methylation in MV4-11 cells; experiment: cells; conditions: Homo sapiens, MV4-11, 96 h, read-out: IC50 of H3K79 methylation inhibition
[6] = Human liver microsome stability assay; assay type: in vitro ADME
[7] = system: claudin-1, -3, E-cadherin, Snail1, Zeb1, Zeb2 expression in MDA-MB231; experiment: qPCR of cell-cell adhesion and EMT gene expression in MDA-MB231; assay type: cell-based
Excerpt: Fourth, qPCR was used to find if treatment with SYC-522 affects gene expression of cell-cell adhesion and EMT genes. […].

MDA-MB231 = experiment: Apoptosis of MDA-MB231, FACS with Annexin-V assay; conditions: 10-day treatment

## CNc1ncnc2c1ncn2[C@@H]1O[C@H](CSCC[C@H](N)C(=O)O)[C@@H](O)[C@H]1O [compound 24, N6-methyl-SAH]
Panel of other HMTs
  activity against a panel of other HMTs in words: inactive

## CC(C)N(CCCNC(=O)Nc1ccc(C(C)(C)C)cc1)C[C@H]1O[C@@H](n2ccc3c(N)ncnc32)[C@H](O)[C@@H]1O [EPZ004777]
[1]
  stable plasma drug concentration: ~0.5 µM
[2]
  in vivo efficacy in MLL leukemia mouse model in words: weak in vivo activity
[2]; listed as Compound 1
  in vivo efficacy in MLL leukemia mouse model in words: relatively weak in vivo efficacy

## Nc1ncnc2c1ncn2[C@@H]1O[C@H](CSCC[C@H](N)C(=O)O)[C@@H](O)[C@H]1O [SAH, S-(5′-adenosyl)-L-homocysteine, reference compound]
[3]
  activity against CARM1, PRMT1 and SUV39H1 (other HMTs) in words: broad activity

## CC(C)N(CCCNC(=O)Nc1ccc(C(C)(C)C)cc1)CC1=C[C@@H](n2cnc3c(N)ncnc32)[C@H](O)[C@@H]1O [compound of Formula VII, 1-(3-((((3R,4S,5R)-3-adenosyl-4,5-dihydroxycyclopent-1-en-1-yl)methyl)-(isopropyl)amino)propyl)-3-(4-(tert-butyl)phenyl)urea]
[4]
  stability in human plasma in words: stable
[3]
  activity against CARM1, PRMT1 and SUV39H1 (other HMTs) in words: no activity
[5]
  IC50: ~200 nM

## CC(C)N(CCCNC(=O)Nc1ccc(C(C)(C)C)cc1)C[C@H]1O[C@@H](n2cnc3c(N)ncnc32)[C@H](O)[C@@H]1O [SYC-522]
[6]
  metabolic stability in human liver microsomes in words: quickly degraded
[7]
  Zeb1 and Zeb2 expression: unchanged or slightly increased
  expression of Snail1: large decreased expression
[7]; dose-dependent
  increase of the expression of claudin-1, -3 and E-cadherin: ≤ 3.9 fold
MDA-MB231; 2 μM
  apoptosis of MDA-MB231 at 2 μM: negligible apoptosis
MDA-MB231; 10 μM
  apoptosis of MDA-MB231 at 10 μM: 18.4%
